Test systems include HCC-2998 colon; HCT-116 colon; M14 melanoma; MDA-MB-231 breast; PC-3 prostate; RXF 393 renal; SK-MEL-5 melanoma; T-47D breast; MALME-3M melanoma; SF-539 CNS.
Experiment in all cases: inhibition of tumour cell growth, NCI panel, 48 h

In PubChem BioAssay (NCI) one finds TGI and GI50 data, which are given here for 16 molecules.

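Exposure lasted 48 hours, with cells grown in 96-well plates and compounds tested at five concentrations. GI50 is the concentration that inhibits growth by half. TGI denotes the concentration required for complete inhibition of growth.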

Regarding `C=CC(C)(C)C1(CC(OC)OC)C(=O)N(C)c2ccccc21` (centres undefined), the TGI in the test with HCC-2998 colon, with HCT-116 colon, with M14 melanoma, in the test on MDA-MB-231 breast, in the test with PC-3 prostate and with RXF 393 renal was greater than 25 µM throughout. Further, the TGI in the test on SK-MEL-5 melanoma and with T-47D breast was greater than 25 µM each time.
For `Cn1cc(-c2nc(-c3c[nH]c4ccncc34)cs2)c2ccccc21`, the GI50 in the test with HCT-116 colon is 1.61 µM; in the test with M14 melanoma it was 1.74 µM; with MALME-3M melanoma, 1.69 µM; in the test on MDA-MB-231 breast, 1.56 µM; with PC-3 prostate, 1.45 µM; with SF-539 CNS, 1.78 µM. For the same molecule, the TGI in the test on HCT-116 colon was determined as 3.04 µM; with M14 melanoma, 3.4 µM; in the test on MALME-3M melanoma, 3.23 µM; with MDA-MB-231 breast, 3.04 µM; in the test with PC-3 prostate it was 2.96 µM; in the test with SF-539 CNS, 3.26 µM.
For the molecule `CC1(C)OC2CC3COC(=O)C3CC2O1` (centres undefined), the TGI in the test on HCC-2998 colon, in the test with HCT-116 colon, in the test on M14 melanoma, in the test with MALME-3M melanoma, in the test with SF-539 CNS and with SK-MEL-5 melanoma was greater than 100 µM each time.
For `CCCCCCCCCCCCCCCCNCC(O)CN` (centres undefined), the TGI in the test on HCC-2998 colon is 5.84 µM; in the test with HCT-116 colon, 3.64 µM; in the test with MALME-3M melanoma it was 30.2 µM; with RXF 393 renal, 8.16 µM; in the test with SF-539 CNS, 4.72 µM; with SK-MEL-5 melanoma it was 27 µM.
Take `Nc1ncnc2c1sc(=S)n2-c1ccccc1`: the TGI in the test on HCC-2998 colon, in the test with HCT-116 colon, in the test on M14 melanoma, with MALME-3M melanoma, in the test with RXF 393 renal and with SF-539 CNS was greater than 100 µM throughout. In the test with SK-MEL-5 melanoma, this molecule displayed a TGI greater than 100 µM.
Turning to `O=C(NNS(=O)(=O)c1ccc(Br)cc1)c1ccc(Cl)cc1NC(=O)C12CC3CC(CC(C3)C1)C2`, the TGI in the test with HCT-116 colon is greater than 100 µM; in the test with M14 melanoma, 33.6 µM; in the test with MALME-3M melanoma, 35.3 µM; in the test with PC-3 prostate, 38.6 µM; in the test on RXF 393 renal, 31.6 µM; in the test with SF-539 CNS it was 32.3 µM. Further, the TGI with SK-MEL-5 melanoma is 23.2 µM; in the test with T-47D breast it was greater than 100 µM.
Take `COC(=O)CCCC1(CCCC(=O)OC)CCCCCCCCC(CCCC(=O)OC)(CCCC(=O)OC)C(=O)C1=O`: the TGI with HCC-2998 colon is greater than 100 µM; in the test on HCT-116 colon it was greater than 100 µM; with M14 melanoma, greater than 100 µM; with MALME-3M melanoma, 60.1 µM; in the test with PC-3 prostate, 53.5 µM; in the test on RXF 393 renal, 69.9 µM. Further, the TGI is 61.3 µM in the test on SF-539 CNS, greater than 100 µM in the test with SK-MEL-5 melanoma and greater than 100 µM with T-47D breast.
On to `C[N+](C)=c1ccc2nc3c(ccc4ccccc43)oc-2c1`, for which the TGI in the test with HCC-2998 colon came out at 37.7 µM; with HCT-116 colon, 20.3 µM; in the test on M14 melanoma, 24.7 µM; with MALME-3M melanoma, 26.1 µM; with RXF 393 renal, 26 µM; in the test on SF-539 CNS, 32.2 µM. The molecule further yielded a TGI with SK-MEL-5 melanoma of 27.5 µM.
For `C[C@]12C(=O)C=CCC1=CC[C@@H]1[C@@H]2[C@H]2CC3(O)C(=O)O[C@@]4(C)[C@H]5C[C@@]6(C)[C@@H]7[C@@]2(O)[C@]1(OC[C@H]6C(=O)O5)O[C@]734` (some centres undefined), the TGI in the test with HCT-116 colon was greater than 100 µM; with M14 melanoma, greater than 100 µM; with MALME-3M melanoma, greater than 100 µM; with MDA-MB-231 breast it was greater than 100 µM; with PC-3 prostate, greater than 100 µM; in the test on RXF 393 renal, 55.7 µM. The results for the TGI in the test on SF-539 CNS and in the test with SK-MEL-5 melanoma were 42.9 µM and greater than 100 µM, respectively.
In the case of `NC(=O)COc1c(Br)cc(Br)cc1Br`, the TGI in the test on HCC-2998 colon, with HCT-116 colon, in the test on M14 melanoma, in the test with MALME-3M melanoma, in the test on SF-539 CNS and in the test on SK-MEL-5 melanoma was greater than 100 µM throughout.
For the molecule `COc1ccc(C2S/C(=C\c3cccc(OC)c3)C(=O)N2NC(=O)Cc2ccccc2)cc1` (centres undefined), the TGI with HCT-116 colon, with M14 melanoma, with MALME-3M melanoma, in the test with RXF 393 renal, in the test on SF-539 CNS and with SK-MEL-5 melanoma was greater than 100 µM each time.
Take `C/C=C/c1cc2c(c(=O)o1)C(=O)[C@@H](O)[C@H](C)O2`: the TGI turned out to be 24 µM in the test on HCC-2998 colon; 20.1 µM with HCT-116 colon; 32.5 µM in the test with MALME-3M melanoma; 27.2 µM in the test with RXF 393 renal; 33.6 µM with SF-539 CNS; 29.4 µM in the test on SK-MEL-5 melanoma.
With `C=CCNc1nc(O)c(/C=C2\C=Nc3ncccc32)s1`, the GI50 was 3.4 µM in the test on HCC-2998 colon; 1.52 µM in the test on HCT-116 colon; 3.45 µM with M14 melanoma; 2.44 µM in the test with MDA-MB-231 breast; 2.07 µM in the test on RXF 393 renal; 0.524 µM in the test with SF-539 CNS. Moreover, the results for the GI50 in the test on SK-MEL-5 melanoma and in the test on T-47D breast were 2.86 µM and 2.27 µM, respectively. Moreover, the TGI with HCC-2998 colon was 58.5 µM; in the test with HCT-116 colon, greater than 100 µM; in the test on M14 melanoma, 13.1 µM; in the test with MDA-MB-231 breast, 6.63 µM; in the test on RXF 393 renal, 4.25 µM; in the test on SF-539 CNS, 2.06 µM. The TGI was greater than 100 µM in the test on SK-MEL-5 melanoma and 7.38 µM in the test with T-47D breast.
In the case of `O=C(NC12CC3CC(CC(C3)C1)C2)C(=O)c1c[nH]c2ccc(Br)cc12`, the TGI in the test on HCC-2998 colon is greater than 100 µM; in the test on HCT-116 colon, 45.7 µM; with M14 melanoma, 31.4 µM; in the test with MALME-3M melanoma, 68.6 µM; in the test with RXF 393 renal, 6.39 µM; with SF-539 CNS, 51.3 µM. Further, the TGI in the test on SK-MEL-5 melanoma was greater than 100 µM.
For the molecule `O=S(=O)(c1ccccc1)c1nccs1`, the TGI with HCC-2998 colon, with HCT-116 colon, in the test with M14 melanoma, in the test on SF-539 CNS and in the test on SK-MEL-5 melanoma was greater than 100 µM in each case.
Consider `CCOP(=O)(OCC)/C(C#N)=C\c1ccsc1`, for which the TGI in the test on HCC-2998 colon, with HCT-116 colon, with M14 melanoma, with MALME-3M melanoma, in the test with RXF 393 renal and in the test with SF-539 CNS was greater than 100 µM in each case. The same molecule registered a TGI in the test with SK-MEL-5 melanoma greater than 100 µM.
